Assay results: paper PMC4320118, “Micheliolide Derivative DMAMCL Inhibits Glioma Cell Growth In Vitro and In Vivo” (PLoS ONE, 2015)
Where “and” joins values, the source holds several entries; their conditions need not be identical. Identical values can stand only once.

Columns and labels:
[1] = system: C6 cells; assay: Apoptosis by Annexin V/PI flow cytometry, C6; assay type: cell-based, rat
Procedure: Glioma cells (10^4) in the logarithmic growth phase were seeded in 6-well plates for 24 h. Cells were treated with DMAMCL at 240, 120, 60, 30, 15, or 0 μM. They were removed from culture plates with 0.5% trypsin containing ethylene diamine tetraacetic acid (EDTA). Apoptosis of C6 cells was measured using an Annexin V and propidium iodide (PI) apoptosis detection kit (Invitrogen, USA) and a Beckman flow cytometer (Cytomics FC500, Beckman Coulter, USA).

[2] = system: intracerebral C6 glioma; assay: Survival time analysis in C6 intracerebral glioma rats; assay type: in vivo, Wistar rats; settings: for Survival (# of rats) End: 63 days, n = 10; for Survival: at 63 days; for Mean survival / Median survival: observation 63 days
Procedure: C6 tumors were maintained as subcutaneous tumors in rats.
The survival time analyses were performed in C6 intracerebral glioma rats. […] Animals were monitored daily for signs of mortality and weight. Rats were sacrificed when a loss of mobility, lethargy, hemorrhaging around the eyes, or a hunched posture was observed as previously described. The observation time was terminated when all the vehicle rats died. Then the other rats were euthanized by CO2 asphyxiation.

[3] = system: Bcl-2 and Bax in C6 cells; assay: Western blotting of Bcl-2 and Bax, C6 cells; assay type: cell-based, rat; settings: 60 μM and 120μM, 24 hr
Procedure: The cellular proteins were extracted from 10^7 cultured cells after drug treatments using RIPA lysis buffer (Promega, USA). Western blotting analysis was performed to determine cellular responses targeting apoptosis-related proteins including Bcl-2 and Bax. Briefly, C6 and U-87MG cells were treated with different doses of DMAMCL for 24 hr at 37°C. Then cells were washed twice with cold phosphate buffered saline (PBS) and lysed in RIPA buffer containing 1mmol/l PMSF (Pheylmethylsulfonyl fluoride, Sigma, USA) on ice for 30 min. The total proteins of cells were obtained by centrifugation at 12000 rpm for 15 min. Next, the lysate proteins were resolved by SDS-PAGE and transferred to the Immobilon-P membranes (Millipore, Billerica, MA, USA). The membranes were blocked by 5% nonfat milk in Tris-buffered saline with 0.1% Tween 20 (TBST) and immunoblotted with the antibodies against β-actin, Bcl-2 and Bax (Cellsignaling Technology, USA) at 4°C overnight. Then membranes were incubated with HRP-conjugated secondary antibody for 1.5 hr at room temperature. The targeting antibodies were stained with enhanced chemiluminescent reagents (Millipore, Billerica, MA, USA) and visualized by ChemiScope 3600 Mini systerm (Clinx Science Instruments, China).

[4] = Locomotor activity (neurological effects); assay type: in vivo, Wistar rats
Procedure: Locomotor activity was used to assess neurological effects of DMAMCL. Wistar rats (150–170 g) were divided into the following 3 groups (10 rats /group): 1) vehicle control, 2) DMAMCL at 100 mg/kg, and 3) DMAMCL at 300 mg/kg. DMAMCL was administered orally once a day for 21 days. Rat locomotor activities were monitored on days 1, 10, 21 and 28 using Aninal Behavioral Analysis System (AniLab Software and Instruments Co, Ltd, China). Briefly, rats were gently placed in the locomotor activity boxes equipped with infrared photobeams and individual total distance (cm) of rat running was recorded during a test period of 60 min. The test apparatus was cleaned to eliminate odors for the next test after each animal was tested.

[5] = system: U-87MG cells; assay: Apoptosis by Annexin V/PI flow cytometry, U-87MG; assay type: cell-based, human
[6] = 24 hr post-treatment, dose-dependent
[7] = DMAMCL 25 mg/kg daily for 21 days
[8] = DMAMCL 50 mg/kg daily for 21 days
[9] = DMAMCL 100 mg/kg daily for 21 days

CC1=C2CC[C@@](C)(O)[C@@H]2[C@H]2OC(=O)[C@@H](CN(C)C)[C@@H]2CC1 [DMAMCL, dimethylaminomicheliolide]
Surviving cells ([1]; 240 μM): few surviving
Early and late apoptosis and necrosis [1, 6]: significantly increased early and late apoptosis and necrosis
Median survival of deceased animals [2, 7]: 28 days
Time of death End [2, 7]: 42 days
Time of death Start [2, 7]: 20 days
Survival (# of rats) End [2, 7]: 7 # of rats
Survival [2, 7]: 70% and 70 ^** %
Mean survival [2, 7]: 53.1 ± 16.8 days
Median survival [2, 7]: 63 days
Median survival of deceased animals [2, 8]: 25 days
Time of death End [2, 8]: 25 days
Time of death Start [2, 8]: 25 days
Survival (# of rats) End [2, 8]: 9 # of rats
Survival [2, 8]: 90% and 90 ^*** %
Mean survival [2, 8]: 59.2 ± 12 days
Median survival [2, 8]: 63 days
Median survival of deceased animals [2, 9]: 41 days
Time of death End [2, 9]: 41 days
Time of death Start [2, 9]: 41 days
Survival (# of rats) End [2, 9]: 9 # of rats
Survival [2, 9]: 90% and 90 ^*** %
Mean survival [2, 9]: 60.8 ± 7 days
Median survival [2, 9]: 63 days
Survival longer than vehicle animals ([2]; DMAMCL-treated rats): ~ 30 days
Bax expression (Western blot) [3]: up-regulated Bax expression
Bcl-2 expression (Western blot) [3]: down-regulated Bcl-2 expression
Locomotor activity ([4]; 100mg/kg orally once a day for 21 days, observation period): as active as vehicle group
Locomotor activity, total distance ([4]; 300mg/kg orally once a day, following days): still less active than vehicle group, but without significant statistical difference
Locomotor activity, total distance ([4]; 300mg/kg orally, first day): decreased compared with vehicle group
Locomotor activity, total distance ([4]; 300mg/kg, within one week of DMAMCL withdrawal): no significant changes were observed
Surviving cells ([5]; 240 μM): few surviving
Early and late apoptosis and necrosis [5, 6]: significantly increased early and late apoptosis and necrosis
